This is an account of results in patent US4505924A, “Pharmaceutical preparation for the topical treatment of acne” (Richardson-Vicks Ltd., priority 1982, dated 1985).

Molecules are shown by their SMILES. Where two headings read alike, the source gives them in different places.

Test [1] deals with Pi. ovale. The test can be described thus: Zone diffusion test. The format is cell-based. The note with it: Pityrosporum ovale, read-out: Zone of Imhibition, Pi. ovale.
The subject of test [2] is P. acnes. The test can be described thus: Zone diffusion test. In kind it is cell-based. The protocol: (§1) A zone diffusion test was carried out on the three emulsions. The results were as follows:
(§2) The ranking order for activity against P. acnes was the same as the GMS emulsions.

Test [3] deals with S. epidermidis. The test can be described thus: Zone diffusion test. The format is cell-based. The protocol:
as §1, §2

A short description of test [4]: Zone diffusion test for synergistic activity. In kind it is cell-based. As to conditions: single substance; for zone of inhibition at 10 µg/disc: 10 μg; for zone of inhibition at 100 µg/disc: 100 μg. The protocol: Imazalil and Hexamidine were tested for synergistic activity using a zone diffusion test.
Test [5] relates to hyaluronidase. The test can be described thus: Hyaluronidase production by P. acnes in continuous culture (chemostat). The format is cell-based, Propionibacterium acnes. As to conditions: growth in the presence of 10 μg/ml Imazalil. An excerpt:
(§3) The enzymes are believed to play a role in the pathogenesis of acne. Imazalil is a direct lipase inhibitor and also reduces the production of hyaluronidase and acid phosphatase. Hexamidine likewise reduces the lipase activity.
(§4) Imazalil and Hexamidine have been studied for anti-enzymic properties against the production and activity of the exoenzymes of Propionibacterium acnes.
(§5) (ii) Imazalil reduced the output of hyaluronidase and acid phosphatase by P.acnes.
(§6) Levels of hyaluronidase fell by 50% after growth in the presence of 10 μg/ml Imazalil.
(§7) (ii) Production of lipase, hyaluronidase and acid phosphatase was markedly affected by a mixture of 10 μg/ml Imazalil and 1 μg/ml Hexamidine. […] Hyaluronidase output was reduced by 50%. Acid phosphatase output was reduced by 80%.

Test [6] relates to P. acnes. The test can be described thus: Zone diffusion test using 1% artificial sebum in agar (resistance to inactivation by sebum). In kind it is cell-based. The note with it: for zone of inhibition at 10 µg/disc / zone of inhibition at 100 µg/disc: Cutibacterium acnes; for zone of inhibition at 10 µg/disc: 10 μg; for zone of inhibition at 100 µg/disc: 100 μg.
Test [7] relates to acid phosphatase. The test can be described thus: Acid phosphatase production by P. acnes in continuous culture (chemostat). The format is cell-based, Propionibacterium acnes. The note with it: growth in the presence of 10 μg/ml Imazalil.
Source text: as §3, §4, §5, §6, §7

For test [8], the system named is lipase. The test can be described thus: Direct inhibition of P. acnes lipase activity. In kind it is biochemical, Propionibacterium acnes. The protocol: as §4
There was a 29% reduction of lipase activity in the presence of 10 μg/ml Imazalil and a 68% reduction with 100 μg/ml Imazalil.
(i) A leval of 1 μg/ml Hexamidine reduced lipase activity by 33%.
(i) 100 μg/ml Imazalil and 1 ug/ml Hexamidine reduced lipase activity by 55%.

Where [9] appears, read: 1% artificial sebum in agar, read-out: Zone of Inhibition, Sebum.
The mark [10] stands for this setting: control agar, read-out: Zone of Inhibition, Control.

In the case of `C=CCOC(Cn1ccnc1)c1ccc(Cl)cc1Cl` (stereo not drawn) [Imazalil, 1-[2-(2,4-dichlorophenyl)-2-(2-propenyloxy)ethyl]-1H-imidazole], the zone of inhibition at 10 µg/disc in test [1] (10 μg) was 11 mm; in test [2] (Cutibacterium acnes, 10 μg, read-out: Zone of Imhibition, P. acnes) it was 3 mm; in test [3] (Staphylococcus epidermidis, 10 μg, read-out: Zone of Imhibition, S. epidermidis), 3 mm; in test [4], 0 mm; in test [6] (setting [9]), 0 mm; in test [6] (setting [10]), 0 mm. Moreover, the zone of inhibition at 80 µg/disc in test [1] (80 μg) was determined as 28 mm; in test [2] (Cutibacterium acnes, 80 μg, read-out: Zone of Imhibition, P. acnes), 22 mm; in test [3] (Staphylococcus epidermidis, 80 μg, read-out: Zone of Imhibition, S. epidermidis), 7.5 mm. Besides, the zone of inhibition at 100 µg/disc came to 5.5 mm in test [4], 1.5 mm in test [6] (setting [9]) and 5 mm in test [6] (setting [10]). For the same molecule, the “fall of hyaluronidase levels” value in test [5] came to 50%. Moreover, the “inhibitive effect of lipids (sebum) on activity” value in test [6] (1% artificial sebum in agar) is given as “partially inhibited”. Also, in test [7], the “Production of acid phosphatase” value was “totally inhibited”. For the same molecule, the “reduction of lipase activity” value in test [8] (10 μg/ml Imazalil) is 29%; in test [8] (100 μg/ml Imazalil), 68%.

As to `N=C(N)c1ccc(OCCCCCCOc2ccc(C(=N)N)cc2)cc1` [Hexamidine, 4,4-(hexamethylene (dihydroxy)-dibenzamidine-di-β-hydroxy ethanesulfonate], the “Zone of Imhibition, P. acnes” value in test [2] (20 μg) turned out to be 22.5 mm. Moreover, the zone of inhibition at 20 µg/disc was 17 mm in test [2] (Cutibacterium acnes, 20 μg, read-out: Zone of Imhibition, P. acnes) and 10 mm in test [3] (Staphylococcus epidermidis, 20 μg, read-out: Zone of Imhibition, S. epidermidis). The “Zone of Imhibition, S. epidermidis” value in test [3] (20 μg) turned out to be 13 mm. In test [4] (1 μg), the zone of inhibition at 1 µg/disc came to 3 mm. The zone of inhibition at 10 µg/disc was 10 mm in test [4], 11 mm in test [6] (setting [9]) and 9 mm in test [6] (setting [10]). Besides, the zone of inhibition at 100 µg/disc amounted to 29.5 mm in test [4], 33 mm in test [6] (setting [9]) and 31.5 mm in test [6] (setting [10]). Besides, the “inhibitive effect of lipids (sebum) on activity” value in test [6] (1% artificial sebum in agar) was “totally resistant”. The “reduction of lipase activity” value in test [8] (1 μg/ml Hexamidine) worked out at 33%.
